According to patent publication US20220213138A1, “CYCLIC COMPOUNDS AND METHODS OF MAKING AND USING” (UNIVERSITY OF HONG KONG, priority 2019, published 2022):
Read-outs that look alike come from different tables or passages of the source. Positions of bridges follow the written chain, without caps; N, C: chain ends. No end group written: not given here.

Assays:
[1] = crosslinker bond
Caco2 cells = experiment: Fluorescence confocal imaging analysis of Caco2 cells; type: cell-based; conditions: 1 μL 10 mM peptide in 1 mL DMEM with 10% FBS, 2 hours at 37° C.
Experimental: Caco2 cell line was provided by Prof. Jiang Xia (CUHK). A431 and HT116 cell lines were from Prof. Chiming Che (HKU). Caco2, A431 cells were cultured in DMEM supplemented with 10% FBS. HT116 cells were cultured in RPMI 1640 medium supplemented with 10% FBS. All cells were cultured in a humidified incubator at 37° C. with 5% CO2 supplemented. Cell culture medium and FBS were purchased from Gibco. Hoechst 33342 and DiI were purchased from Beyotime Biotechnology. Flow cytometry tubes were purchased from BD pharmacology.
Caco2 cells were cultured with the confluence of 60% in the 35 mm glass-bottom dish overnight. 1 mL fresh DMEM with 10% FBS was added to the dish. 1 μL 10 mM cyclic peptide (Ac-CPIEDRPMK-CONH2)-Fluorescein (cCK9′-F) (SEQ ID NO:27) in DMSO was added into the medium for 2 hours at 37° C. After two hours' incubation, the supernatant was discarded and the cells were washed with PBS for three times. The cells were replenished with PBS. Hoechst 33342 (final concentration: 2.5 μg/mL) and DiI (final concentration: 5 μM) were added into PBS for 10 min at room temperature. The supernatant was discarded. The cells were washed with PBS for three times and replenished with 3% polyaldehyde for imaging. All images were captured and processed via Leica Application Suit X at ×63 oil objective (Leica).

[2] = system: poorly differentiated colon carcinoma cells; conditions: Kelly, et al., Neoplasia 2003; cited from earlier work
[3] = 21-membered ring, OPA, PBS pH 7.4/DMSO
[4] = 27-membered ring, OPA, PBS pH 7.4/DMSO
[5] = crosslinker bond, 21-membered ring, OPA, then DMAC, PBS pH 7.4/DMSO, 2 steps
[6] = crosslinker bond, 24-membered ring, OPA, then DMAC, PBS pH 7.4/DMSO, 2 steps
[7] = 24-membered ring, OPA, PBS pH 7.4/DMSO
[8] = crosslinker bond, 27-membered ring, OPA, then DMAC, PBS pH 7.4/DMSO, 2 steps

cyclo-(CSQGTFTSDYSKYLDSRRAQ)
ring closure, conversion ([1]; 36-membered ring, OPA, PBS pH 7.4/DMSO): 71.4%
ring closure, yield after HPLC (amide bond, 60-membered ring, NaNO2, MPAA, TCEP (NCL), 6 M Gn.HCl/0.2 M phosphate buffer, 0.2 mM): 71.7%

Ac-ENPECILDKHVQRVM-CONH2
ring closure, conversion ([1]; 21-membered ring, OPA): 98%
ring closure, conversion [1, 3]: 93.6%

Ac-KGEAFQC-CONH2
ring closure, conversion [1, 4]: 90.9%

Cyclo-(Ac-CPIEDRPMK-CONH2)-Fluorescein (Ac-CPIEDRPMK-NH2; linker (positions not given here) via OPA; also: fluorescein conjugate, site not given here) [cCK9′-F]
imaging overlap with cell membrane dye (DiI) (Caco2 cells): overlapped very well with cell membrane dye (DiI)

Ac-KAAACH-CONH2
ring closure, conversion [1, 3]: 98%

Ac-CAHNLTHAK-CONH2
ring closure, conversion ([1]; 33-membered ring, OPA): 98%

bicyclo-(CNSTKNLTFAMRSSGDYGEV)
ring closure, conversion ([1]; 21-membered ring, OPA): 90%

Ac-KAAACF-CONH2
ring closure, conversion ([1]; 21-membered ring, OPA): 98%

NH2-AAAAACF-CONH2
ring closure, conversion ([1]; 20-membered ring, OPA): 98%

Ac-CHHALTHAK-CONH2
ring closure, conversion ([1]; 33-membered ring, OPA): 98%

cyclo-(CNSTKNLTFAMRSSGDYGEV)
ring closure, conversion [1, 3]: 89.2%
ring closure, yield after HPLC (amide bond, 60-membered ring, NaNO2, MPAA, TCEP (NCL), 6 M Gn.HCl/0.2 M phosphate buffer, 0.37 mM): 31%

cyclo-(Ac-KAAAACH-CONH2)-DMAC
ring closure, yield after HPLC (crosslinker bond, 24-membered ring, OPA, then DMAC, PBS pH 7.4/DMSO, 0.53 mM, 2 steps): 34%

bicyclo-(CNSTKNLTFAMRSSGDYGEV)-DMAC
ring closure, yield after HPLC [5]: 69%

cyclo-(CPIEDRPMC) (disulfide 1-9 (inferred)) [CK-9]
cell targeting [2]: specifically target poorly differentiated colon carcinoma cells

Ac-KAAAAACF-CONH2
ring closure, conversion ([1]; 27-membered ring, OPA): 98%

Ac-KAAAACH-CONH2
ring closure, conversion ([1]; 24-membered ring, OPA, PBS pH 7.4/DMSO, 0.53 mM): 92%

cyclo-(Ac-AKVTMTCSAS-CONH2)-DMAC
ring closure, yield after HPLC [6]: 32%

Ac-CDWLPK-CONH2
ring closure, conversion [1, 7]: 89.1%

bicyclo-(CSQGTFTSDYSKYLDSRRAQ)
ring closure, conversion ([1]; 36-membered ring, OPA): 94%

cyclo-(Ac-GAQCAFLK-CONH2)-DMAC
ring closure, yield after HPLC [5]: 38%

Ac-GAQCAFLK-CONH2
ring closure, conversion [1, 3]: 83.3%

cyclo-(Ac-ACFALPKG-CONH2)-DMAC
ring closure, yield after HPLC [6]: 48%

cyclo-(Ac-KAAAAACH-CONH2)-DMAC
ring closure, yield after HPLC [8]: 52.2%

cyclo-(Ac—NYRWRCKN-CONH2)-DMAC
ring closure, yield after HPLC (crosslinker bond, 12-membered ring, OPA, then DMAC, PBS pH 7.4/DMSO, 2 steps): 32%

cyclo-(Ac-ENPECILDKHVQRVM-CONH2)-DMAC
ring closure, yield after HPLC [5]: 35%

Ac-AKVTMTCSAS-CONH2
ring closure, conversion [1, 7]: 99%

Ac-ACFALPKG-CONH2
ring closure, conversion [1, 7]: 92.5%

Ac-KAAAAACH-CONH2
ring closure, conversion [1, 4]: 98%

bicyclo-(CSSLDEPGRGGFSSESKV)
ring closure, conversion ([1]; 15-membered ring, OPA): 98%

NH2-AAAACF-CONH2
ring closure, conversion ([1]; 17-membered ring, OPA): 96%

cyclo-(CSSLDEPGRGGFSSESKV)
ring closure, conversion ([1]; 15-membered ring, OPA, PBS pH 7.4/DMSO): 86.9%
ring closure, yield after HPLC (amide bond, 54-membered ring, NaNO2, MPAA, TCEP (NCL), 6 M Gn.HCl/0.2 M phosphate buffer, 0.14 mM): 68.8%

cyclo-(Ac-KGEAFQC-CONH2)-DMAC
ring closure, yield after HPLC [8]: 36.6%

Ac-NYRWRCKN-CONH2
ring closure, conversion ([1]; 12-membered ring, OPA, PBS pH 7.4/DMSO): 98%

cyclo-(Ac-CDWLPK-CONH2)-DMAC
ring closure, yield after HPLC [6]: 31.9%

NH2-AAACF-CONH2
ring closure, conversion ([1]; 14-membered ring, OPA): 98%

Ac-KAAAAAACF-CONH2
ring closure, conversion ([1]; 30-membered ring, OPA): 98%

cyclo-(Ac-KAAACH-CONH2)-DMAC
ring closure, yield after HPLC [5]: 47.3%

Phallodin analog (cyclo-(Dap-Ala-Hyp-Cys-(D)thr-Ala-Glu))
ring closure, conversion ([1]; 15-membered ring): 86.4%

bicyclo-(CSSLDEPGRGGFSSESKV)-DMAC
ring closure, yield after HPLC (crosslinker bond, 15-membered ring, OPA, then DMAC, PBS pH 7.4/DMSO, 2 steps): 43%

bicyclo-(Dap-A-Hyp-C-t-A-E)-DMAC
ring closure, yield after HPLC (crosslinker bond, 15-membered ring, 2 steps): 65%

Ac-KAAAACF-CONH2
ring closure, conversion ([1]; 24-membered ring, OPA): 93%

bicyclo-(CSQGTFTSDYSKYLDSRRAQ)-DMAC
ring closure, yield after HPLC (crosslinker bond, 36-membered ring, OPA, then DMAC, PBS pH 7.4/DMSO, 2 steps): 65%
